Legend:
[1] = target: Recombinant human Cbl-b (aa 36-427) (Homo sapiens (Human), UniProt Q13191); experiment: Cbl-b Biochemical Assay (TR-FRET); settings: read-out: TR-FRET hCbl-b IC50
Summary of the method: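 IC50 from 4-parameter fit of % inhibition (DMSO max, reference-inhibitor min), duplicate ten-point series. Compound preincubated with 6 nM Cbl-b, then Src-Zap70 (1-2.5 nM)/0.5 mM ATP reaction 60 min RT; EDTA quench with labelled UBE2D2-Ub and streptavidin-terbium, 60 min, HTRF at 520 nm.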

[2] = system: Jurkat (clone E6-1) cells, NFAT luciferase reporter; experiment: Jurkat Reporter Assay (NFAT Luciferase); type: cell-based; settings: Homo sapiens, anti-CD3 stimulation, 6 hr, read-out: Jurkat NFAT EC50

Sequence of Recombinant human Cbl-b (aa 36-427) (Q13191 36-427): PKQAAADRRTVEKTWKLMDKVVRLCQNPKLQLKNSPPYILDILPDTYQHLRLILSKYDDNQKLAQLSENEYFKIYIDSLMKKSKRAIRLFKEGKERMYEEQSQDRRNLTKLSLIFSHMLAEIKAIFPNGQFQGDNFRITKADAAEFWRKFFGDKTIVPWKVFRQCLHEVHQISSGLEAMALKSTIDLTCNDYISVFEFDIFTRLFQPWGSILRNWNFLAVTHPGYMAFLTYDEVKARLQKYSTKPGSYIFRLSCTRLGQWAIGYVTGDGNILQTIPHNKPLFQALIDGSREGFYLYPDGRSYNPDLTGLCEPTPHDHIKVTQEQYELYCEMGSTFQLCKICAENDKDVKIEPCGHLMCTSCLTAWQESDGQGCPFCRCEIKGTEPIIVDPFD

Row | SMILES | IC50 [1] [µM] | EC50 [2] [µM]
1 | CCNc1cc(-c2c(-c3nncn3C)cnn2C)cc(N2Cc3c(cc(CO[C@H]4CCC[C@H]4O)cc3C(F)(F)F)C2=O)n1 [ADI-1, 2-[6-(Ethylamino)-4-[2-methyl-4-(4-methyl-1,2,4-triazol-3-yl)pyrazol-3-yl]pyridin-2-yl]-6-({[(1S,2R)-2-hydroxycyclopentyl]oxy}methyl)-4-(trifluoromethyl)-3H-isoindol-1-one] | ≤ 0.2 | 0.2 to 1
2 | Cn1cnnc1-c1cc(C(N)=O)ccc1-c1cccc(N2Cc3c(cc(CO)cc3C(F)(F)F)C2=O)c1 [ADK-1, 3′-[6-(Hydroxymethyl)-1-oxo-4-(trifluoromethyl)-3H-isoindol-2-yl]-2-(4-methyl-1,2,4-triazol-3-yl)-[1,1′-biphenyl]-4-carboxamide] | 1 to 10 | 10 to 50
3 | Cn1cnnc1-c1ccccc1-c1cccc(N2Cc3c(cc(CO[C@@H]4CCC[C@H]4O)cc3C(F)(F)F)C2=O)c1 [ADL-4, 6-({[(1R,2R)-2-Hydroxycyclopentyl]oxy}methyl)-2-[2′-(4-methyl-1,2,4-triazol-3-yl)-[1,1′-biphenyl]-3-yl]-4-(trifluoromethyl)-3H-isoindol-1-one] | ≤ 0.2 | 1 to 10
4 | Cn1cnnc1-c1ccc(C#N)cc1-c1cccc(N2Cc3c(cc(CO)cc3C(F)(F)F)C2=O)c1 [ADM-6, 3′-[6-(Hydroxymethyl)-1-oxo-4-(trifluoromethyl)-3H-isoindol-2-yl]-6-(4-methyl-1,2,4-triazol-3-yl)-[1,1′-biphenyl]-3-carbonitrile] | 0.2 to 1 | 10 to 50
5 | CCNc1cc(-c2cc(C#N)ccc2-c2nncn2C)cc(N2Cc3c(cccc3C(F)(F)F)C2=O)n1 [ADS-6, 3-[2-(Ethylamino)-6-[1-oxo-4-(trifluoromethyl)-3H-isoindol-2-yl]pyridin-4-yl]-4-(4-methyl-1,2,4-triazol-3-yl)benzonitrile] | ≤ 0.2 | 1 to 10
6 | Cn1cnnc1-c1cc(C#N)ccc1-c1cccc(C(=O)Nc2cc(CN[C@@H]3CCC[C@@H]3O)cc(C(F)(F)F)c2N)c1 [ADW-5, N-[2-Amino-5-({[(1R,2S)-2-hydroxycyclopentyl]amino}methyl)-3-(trifluoromethyl)phenyl]-4′-cyano-2′-(4-methyl-1,2,4-triazol-3-yl)-[1,1′-biphenyl]-3-carboxamide] | 1 to 10 | 10 to 50
7 | CCNc1cc(-c2c(-c3nncn3C)cnn2C)cc(N2Cc3c(cc(COCC(C)(C)O)cc3C(F)(F)F)C2=O)n1 [ADY-2, 2-[6-(Ethylamino)-4-[2-methyl-4-(4-methyl-1,2,4-triazol-3-yl)pyrazol-3-yl]pyridin-2-yl]-6-[(2-hydroxy-2-methylpropoxy)methyl]-4-(trifluoromethyl)-3H-isoindol-1-one] | ≤ 0.2 | 0.2 to 1
8 | Cn1cnnc1-c1cc(C#N)ccc1-c1cccc(N2Cc3c(cc(CNCCO)cc3C(F)(F)F)C2=O)c1 [AEA-2, 3′-(6-{[(2-Hydroxyethyl)amino]methyl}-1-oxo-4-(trifluoromethyl)-3H-isoindol-2-yl)-2-(4-methyl-1,2,4-triazol-3-yl)-[1,1′-biphenyl]-4-carbonitrile] | ≤ 0.2 | 1 to 10
9 | CCNc1cc(-c2c(-c3nncn3C)cnn2C)cc(N2Cc3ccc(CNCC4(O)CCC4)cc3C2=O)n1 [AEE-2, 2-[6-(Ethylamino)-4-[2-methyl-4-(4-methyl-1,2,4-triazol-3-yl)pyrazol-3-yl]pyridin-2-yl]-6-({[(1-hydroxycyclobutyl)methyl]amino}methyl)-3H-isoindol-1-one] | ≤ 0.2 | 0.2 to 1
10 | Cn1cnnc1-c1cc(C#N)ccc1-c1cc(C2CC2)nc(N2Cc3c(cccc3C(F)(F)F)C2=O)c1 [AEG-3, 4-{2-Cyclopropyl-6-[1-oxo-4-(trifluoromethyl)-3H-isoindol-2-yl]pyridin-4-yl}-3-(4-methyl-1,2,4-triazol-3-yl)benzonitrile] | ≤ 0.2 | 0.2 to 1
11 | CCNc1cc(-c2c(-c3nncn3C)cnn2C)cc(N2Cc3c(cc(CN(C)CC4(OC)CCC4)cc3C(F)(F)F)C2=O)n1 [AEK-3, 2-(6-(Ethylamino)-4-(1-methyl-4-(4-methyl-4H-1,2,4-triazol-3-yl)-1H-pyrazol-5-yl)pyridin-2-yl)-6-((((1-methoxycyclobutyl)methyl)(methyl)amino)methyl)-4-(trifluoromethyl)isoindolin-1-one] | ≤ 0.2 | 0.2 to 1
12 | CCNc1cc(-c2ccc(C#N)cc2-c2nncn2C)cc(N2Cc3c(cc(N4CCCC4)cc3C(F)(F)F)C2=O)n1 [AEP-2, 4-[2-(Ethylamino)-6-[1-oxo-6-(pyrrolidin-1-yl)-4-(trifluoromethyl)-3H-isoindol-2-yl]pyridin-4-yl]-3-(4-methyl-1,2,4-triazol-3-yl)benzonitrile] | 0.2 to 1 | 10 to 50
13 | COc1ccc2c(c1)CN(c1cc(-c3ccccc3-c3nncn3C)cc(C3CC3)n1)C2=O [AER-1] | ≤ 0.2 | 10 to 50
14 | Cn1cnnc1-c1cc(C#N)ccc1-c1ccnc(N2Cc3c(cc(CO)cc3C(F)(F)F)C2=O)c1 [AEX-2, 4-{2-[6-(Hydroxymethyl)-1-oxo-4-(trifluoromethyl)-3H-isoindol-2-yl]pyridin-4-yl}-3-(4-methyl-1,2,4-triazol-3-yl) benzonitrile] | ≤ 0.2 | 1 to 10
15 | CCNc1cc(-c2ccc(OC)cc2-c2nncn2C)cc(N2Cc3c(cccc3C(F)(F)F)C2=O)n1 [AFB-8, 2-[6-(Ethylamino)-4-[4-methoxy-2-(4-methyl-1,2,4-triazol-3-yl)phenyl]pyridin-2-yl]-4-(trifluoromethyl)-3H-isoindol-1-one] | ≤ 0.2 | 0.2 to 1
16 | CCNc1cc(-c2ccc(C(=O)OC)cc2-c2nncn2C)cc(N2Cc3c(cccc3C(F)(F)F)C2=O)n1 [AFC-1, Methyl 4-[2-(ethylamino)-6-[1-oxo-4-(trifluoromethyl)-3H-isoindol-2-yl]pyridin-4-yl]-3-(4-methyl-1,2,4-triazol-3-yl) benzoate] | 1 to 10 | 10 to 50
17 | CCNc1cc(-c2ccc(CO)cc2-c2nncn2C)cc(N2Cc3c(cccc3C(F)(F)F)C2=O)n1 [AFD-1, 2-[6-(ethylamino)-4-[4-(hydroxymethyl)-2-(4-methyl-1,2,4-triazol-3-yl)phenyl]pyridin-2-yl]-4-(trifluoromethyl)-3H-isoindol-1-one] | ≤ 0.2 | 10 to 50
18 | CCNc1cc(-c2c(-c3nncn3C)cnn2C)cc(N2Cc3c(cc(COCC4(F)CCC4)cc3C(F)(F)F)C2=O)n1 [AFP-2, 2-[6-(Ethylamino)-4-[2-methyl-4-(4-methyl-1,2,4-triazol-3-yl)pyrazol-3-yl]pyridin-2-yl]-6-{[(1-fluorocyclobutyl)methoxy]methyl}-4-(trifluoromethyl)-3H-isoindol-1-one] | ≤ 0.2 | 0.2 to 1
19 | Cc1ccc2c(c1)C(=O)N(c1cc(-c3ccc(F)cc3-c3nncn3C)cc(C(C)C)n1)C2 [AFY-1, 2-(4-(4-fluoro-2-(4-methyl-4H-1,2,4-triazol-3-yl)phenyl)-6-isopropylpyridin-2-yl)-6-methylisoindolin-1-one] | 1 to 10 | 10 to 50
20 | CCNc1cc(-c2nn(CC(C)C)cc2-c2nncn2C)cc(N2Cc3c(cccc3C(F)(F)F)C2=O)n1 [AGX-8, 2-[6-(Ethylamino)-4-[4-(4-methyl-1,2,4-triazol-3-yl)-1-(2-methylpropyl)pyrazol-3-yl]pyridin-2-yl]-4-(trifluoromethyl)-3H-isoindol-1-one] | 10 to 50 | 10 to 50
21 | CN(Cc1cc2c(c(C(F)(F)F)c1)CN(c1cc(-c3ccc(C#N)cc3-c3nncn3C)cc(C3CC3)n1)C2=O)C(=O)OC(C)(C)C [AGY-3, tert-Butyl N-[(2-{4-[4-cyano-2-(4-methyl-1,2,4-triazol-3-yl)phenyl]-6-cyclopropylpyridin-2-yl}-3-oxo-7-(trifluoromethyl)-1H-isoindol-5-yl)methyl]-N-methylcarbamate] | ≤ 0.2 | 0.2 to 1
22 | CCCn1cc(-c2nncn2C)c(-c2cc(NCC)nc(N3Cc4c(cccc4C(F)(F)F)C3=O)c2)n1 [AHD-9, 2-[6-(Ethylamino)-4-[4-(4-methyl-1,2,4-triazol-3-yl)-1-propylpyrazol-3-yl]pyridin-2-yl]-4-(trifluoromethyl)-3H-isoindol-1-one] | 10 to 50 | 10 to 50
23 | CCOc1cc(-c2ccc(C#N)cc2-c2nncn2C)cc(N2Cc3c(cc(COCCNC)cc3C(F)(F)F)C2=O)n1 [AHE-4] | ≤ 0.2 | 1 to 10
24 | Cn1cnnc1-c1cc(C#N)ccc1-c1cc(C2CC2)nc(N2Cc3c(cc(COCCO)cc3C(F)(F)F)C2=O)c1 [AHF-4, 4-(2-Cyclopropyl-6-{6-[(2-hydroxyethoxy)methyl]-1-oxo-4-(trifluoromethyl)-3H-isoindol-2-yl}pyridin-4-yl)-3-(4-methyl-1,2,4-triazol-3-yl)benzonitrile] | ≤ 0.2 | < 0.2
25 | C[C@H](Cc1nncn1C)c1cc(Cl)nc(N2Cc3c(cccc3C(F)(F)F)C2=O)c1 [AHJ-11, (R)-2-(6-Chloro-4-(1-(4-methyl-4H-1,2,4-triazol-3-yl)propan-2-yl)pyridin-2-yl)-4-(trifluoromethyl)isoindolin-1-one] | 1 to 10 | 10 to 50
26 | C[C@H](Cc1nncn1C)c1cc(NS(C)(=O)=O)nc(N2Cc3c(cccc3C(F)(F)F)C2=O)c1 [AHK-1, N-[4-[(2R)-1-(4-Methyl-1,2,4-triazol-3-yl)propan-2-yl]-6-[1-oxo-4-(trifluoromethyl)-3H-isoindol-2-yl]pyridin-2-yl]methanesulfonamide] | 0.2 to 1 | 10 to 50
27 | C[C@@H](Cc1nncn1C)c1cc(NS(C)(=O)=O)nc(N2Cc3c(cccc3C(F)(F)F)C2=O)c1 [AHL-8, N-[4-[(2S)-1-(4-Methyl-1,2,4-triazol-3-yl)propan-2-yl]-6-[1-oxo-4-(trifluoromethyl)-3H-isoindol-2-yl]pyridin-2-yl]methanesulfonamide] | 10 to 50 | 10 to 50

— patent US12325697B2 (Nimbus Clio, Inc., priority 2021, dated 2025)
